# Data reported in article PMC11173382, “In Vitro Investigations into the Potential Drug Interactions of Pseudoginsenoside DQ Mediated by Cytochrome P450 and Human Drug Transporters” (Molecules, 2024).
# Tests used:
# [1] = target: T1, hOCT2 (Homo sapiens, UniProt O15244); test: Substrates uptake assay, S2-OCT2 cells (14C-TEA); type: in vitro ADME; conditions: inhibitor 600 μM
# T1 construct: host or cells: S2-OCT2
# T1 sequence (O15244 1-555): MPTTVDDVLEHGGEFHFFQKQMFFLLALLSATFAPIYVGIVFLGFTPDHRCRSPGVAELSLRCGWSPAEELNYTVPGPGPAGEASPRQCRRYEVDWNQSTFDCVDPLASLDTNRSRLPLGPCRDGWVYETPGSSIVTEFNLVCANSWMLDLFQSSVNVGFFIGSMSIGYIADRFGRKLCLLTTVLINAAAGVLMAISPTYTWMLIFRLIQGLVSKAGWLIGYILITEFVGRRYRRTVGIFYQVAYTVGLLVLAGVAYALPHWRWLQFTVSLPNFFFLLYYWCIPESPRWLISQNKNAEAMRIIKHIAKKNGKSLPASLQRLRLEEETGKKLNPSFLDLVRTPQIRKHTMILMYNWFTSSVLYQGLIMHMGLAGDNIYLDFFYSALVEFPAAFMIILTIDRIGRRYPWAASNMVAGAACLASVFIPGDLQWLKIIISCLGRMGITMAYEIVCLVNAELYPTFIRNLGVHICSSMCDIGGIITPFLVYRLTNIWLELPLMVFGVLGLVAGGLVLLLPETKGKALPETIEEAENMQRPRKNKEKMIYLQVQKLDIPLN
# Description: (§1) Drug transporters mediate the cellular uptake and efflux of their substrates. Therefore, cell lines overexpressing a drug transporter can be utilized to investigate inhibitors of the transporter by assessing changes in substrate uptake. For each drug transporter, we selected a well-characterized inhibitor as the positive control. Radiolabeled substrates were used to indicate the decrease in transport efficiency when the drug transporters were inhibited by PDQ or the control inhibitors.
# (§2) The concentrations of the control drugs and the substrates were stated in the assay details. Working solutions of the control inhibitors, the radiolabeled substrates, and each dose of PDQ were prepared at 200 times (200×) more concentrated solutions with DMSO for further dilution.
# (§3) Transporter-overexpressed cell lines. Human organic anion transporter-overexpressed cell lines MDCKII-OAT1 and S2-OAT3, human organic anion transport polypeptide-overexpressed cell lines HEK293A-OATP1B1 and HEK293A-OATP1B3, human organic cation transporter 2-overexpressed cell line S2-OCT2, and human multi-drug resistance protein MDR1 (or P-gp)-overexpressed cell line MDCKII-MDR1 were gifts from Japan Fuji Biomedical Co., Ltd. (Fuji, Shizuoka Prefecture, Japan). Breast cancer resistance protein-overexpressed vesicles (sf9-BCRP vesicle) were purchased from GenoMembrane Co., Ltd. (Yokohama, Kanagawa, Japan).
# (§4) Substrates uptake assay. In this assay, we studied the inhibition of PDQ against transporters OAT1, OAT3, OCT2, OATP1B1 and OATP1B3 with MDCKII-OAT1, S2-OAT3, S2-OCT2, HEK293A-OATP1B1and HEK293A-OATP1B3 cells, respectively. The radiolabeled substrates for OAT1, OAT3, OATP1B1, OATP1B3 and OCT2 were […], respectively (Table 5). Probenecid ([…]) was the positive control inhibitor of OAT1 and OAT3, while rifampicin ([…]) served as the control drug of OATP1B1 and OATP1B3. For OCT2, we used […] cimetidine to compare with the inhibitory effect of PDQ. Two times (2×) more concentrated working solutions of the drugs and the substrate were prepared with Dulbecco’s phosphate-buffered saline (DPBS, Gibco, Grand Island, NY, USA.). Then, an equal volume of 2× drug solution and 2× radiolabeled substrate solution were mixed as the working mix. All reagents were pre-warmed to 37 °C.
# (§5) The cells were digested with 0.05% trypsin/EDTA. The density of the single-cell suspension was adjusted to 2.0 × 10^5 cells/mL for S2 cells and to 1.5 × 10^5 cells/mL for MDCK II and HEK293A cells. The cell suspension was then added to the reservoirs of the 24-well plate for culture until full confluency. The medium in the wells was removed, and the wells were washed with DPBS. Then, the plate was incubated for 10 min with pre-warmed DPBS in the wells. After removing DPBS, […] of working mix was added to each well to initiate the substrate uptake process. The reaction time was 5 min for S2-OCT2 cells, while the other four types of cells were incubated with the reaction mix for 2 min. Cold DPBS was used to terminate the substrate transportation. To each well, […] NaOH ([…]) was added to lyse the cells. Then, […] cell lysate was transferred to the counting vials, and 3 mL scintillation cocktail (Aquasol-2, PerkinElmer, Waltham, MA, USA) was added. […] Each sample was replicated three times (N = 3).
# (§6) In = [100 × (U − U0)/(Uc − U0)]%(3)
# (§7) The results were expressed as mean ± standard deviation (SD) and analyzed with GraphPad Prism 8.0 software (CA, USA). The IC50 of PDQ was curve-fitted with the FORECAST function. Statistical significance was calculated using a two-tailed test, and a p value < 0.05 was considered as significant.
# [2] = test system: CYP2C9; set-up: method as in PMID 30078466; conditions: cited from earlier work
# [3] = target: T2, hOAT3 (Homo sapiens, UniProt Q8TCC7); test: Substrates uptake assay, S2-OAT3 cells (3H-ES); type: in vitro ADME; conditions: inhibitor 100 μM
# T2 sequence (Q8TCC7 1-542): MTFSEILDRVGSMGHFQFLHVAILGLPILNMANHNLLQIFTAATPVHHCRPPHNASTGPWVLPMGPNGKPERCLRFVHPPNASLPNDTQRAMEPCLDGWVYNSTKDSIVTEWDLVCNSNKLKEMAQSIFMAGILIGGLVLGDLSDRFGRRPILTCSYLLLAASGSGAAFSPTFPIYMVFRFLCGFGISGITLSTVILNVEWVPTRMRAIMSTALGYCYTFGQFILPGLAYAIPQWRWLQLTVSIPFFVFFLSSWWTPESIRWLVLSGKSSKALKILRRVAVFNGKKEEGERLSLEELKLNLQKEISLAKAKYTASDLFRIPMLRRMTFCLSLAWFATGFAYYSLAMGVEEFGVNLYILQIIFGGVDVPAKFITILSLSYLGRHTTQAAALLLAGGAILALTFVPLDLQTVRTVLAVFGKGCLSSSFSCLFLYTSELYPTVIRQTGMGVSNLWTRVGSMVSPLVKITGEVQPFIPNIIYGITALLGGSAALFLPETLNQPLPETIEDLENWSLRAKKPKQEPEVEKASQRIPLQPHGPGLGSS
# Description: as §1, §2, §3, §4, §5, §6, §7
# [4] = target: T3, hOATP1B3 (Homo sapiens, UniProt Q9NPD5); test: Substrates uptake assay, HEK293A-OATP1B3 cells (3H-EG); type: in vitro ADME; conditions: inhibitor 60 μM
# T3 sequence (Q9NPD5 1-702): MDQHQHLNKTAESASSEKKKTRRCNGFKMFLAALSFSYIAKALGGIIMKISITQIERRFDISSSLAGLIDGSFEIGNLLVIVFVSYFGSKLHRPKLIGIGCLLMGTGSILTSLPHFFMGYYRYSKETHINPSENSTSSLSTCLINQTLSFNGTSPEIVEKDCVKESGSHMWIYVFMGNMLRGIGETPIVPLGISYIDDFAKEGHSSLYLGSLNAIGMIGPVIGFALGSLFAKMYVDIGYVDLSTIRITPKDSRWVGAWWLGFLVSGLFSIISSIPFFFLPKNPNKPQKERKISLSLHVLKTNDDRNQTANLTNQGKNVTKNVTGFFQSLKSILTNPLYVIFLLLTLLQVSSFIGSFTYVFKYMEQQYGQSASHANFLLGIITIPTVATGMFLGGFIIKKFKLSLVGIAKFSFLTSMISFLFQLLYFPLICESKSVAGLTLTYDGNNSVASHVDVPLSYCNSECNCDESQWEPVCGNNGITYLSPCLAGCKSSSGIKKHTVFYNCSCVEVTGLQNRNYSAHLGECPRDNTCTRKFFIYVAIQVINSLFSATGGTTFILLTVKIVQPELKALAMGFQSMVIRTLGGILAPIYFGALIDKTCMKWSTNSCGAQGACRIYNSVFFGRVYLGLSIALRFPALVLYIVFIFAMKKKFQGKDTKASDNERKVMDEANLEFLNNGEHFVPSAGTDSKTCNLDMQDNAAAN
# Description: as §1, §2, §3, §4, §5, §6, §7
# [5] = target: T4, hOATP1B1 (Homo sapiens, UniProt Q9Y6L6); test: Substrates uptake assay, HEK293A-OATP1B1 cells (3H-ES); type: in vitro ADME; conditions: inhibitor 60 μM
# T4 sequence (Q9Y6L6 1-691): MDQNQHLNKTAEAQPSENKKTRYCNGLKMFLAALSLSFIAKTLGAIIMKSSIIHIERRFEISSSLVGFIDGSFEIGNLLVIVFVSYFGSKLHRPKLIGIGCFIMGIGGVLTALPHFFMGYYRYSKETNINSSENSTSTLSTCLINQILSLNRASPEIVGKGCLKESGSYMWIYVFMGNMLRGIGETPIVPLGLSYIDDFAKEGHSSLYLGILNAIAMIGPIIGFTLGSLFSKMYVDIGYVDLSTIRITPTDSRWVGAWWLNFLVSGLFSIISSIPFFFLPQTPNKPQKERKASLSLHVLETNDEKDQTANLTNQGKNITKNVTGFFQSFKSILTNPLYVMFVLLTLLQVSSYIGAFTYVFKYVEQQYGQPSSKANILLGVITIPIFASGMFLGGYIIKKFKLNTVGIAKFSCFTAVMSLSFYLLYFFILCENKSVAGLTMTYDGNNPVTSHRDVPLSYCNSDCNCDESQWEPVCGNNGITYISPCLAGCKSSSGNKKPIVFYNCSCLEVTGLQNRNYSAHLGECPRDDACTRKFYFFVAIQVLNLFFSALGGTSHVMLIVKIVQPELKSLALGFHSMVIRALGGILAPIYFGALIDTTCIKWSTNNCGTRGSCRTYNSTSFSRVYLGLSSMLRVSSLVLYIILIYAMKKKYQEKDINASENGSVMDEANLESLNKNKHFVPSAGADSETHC
compound,measurement,setting,value
"CN/C(=N/CCSCc1nc[nH]c1C)NC#N [Cimetidine, reference compound]",DPM (14C-TEA uptake by OCT2),[1],417.3±44.8 DPM
CC(C)=CCC[C@](C)(O[C@@H]1O[C@H](CO[C@@H]2O[C@H](CO)[C@@H](O)[C@H](O)[C@H]2O)[C@@H](O)[C@H](O)[C@H]1O)[C@H]1CC[C@]2(C)[C@@H]1[C@H](O)C[C@@H]1[C@@]3(C)CC[C@H](O[C@@H]4O[C@H](CO)[C@@H](O)[C@H](O)[C@H]4O[C@@H]4O[C@H](CO)[C@@H](O)[C@H](O)[C@H]4O)C(C)(C)[C@@H]3CC[C@]12C [Ginsenoside Rb1],IC50,[2],2.4 µM
"CCCN(CCC)S(=O)(=O)c1ccc(C(=O)O)cc1 [Probenecid, reference compound]",DPM (3H-ES uptake by OAT3),[3],1709.3±343.6 DPM
"CO[C@H]1/C=C/O[C@@]2(C)Oc3c(C)c(O)c4c(O)c(c(/C=N/N5CCN(C)CC5)c(O)c4c3C2=O)NC(=O)/C(C)=C\C=C\[C@H](C)[C@H](O)[C@@H](C)[C@@H](O)[C@@H](C)[C@H](OC(C)=O)[C@@H]1C [Rifampicin, reference compound]",DPM (3H-EG uptake by OATP1B3),[4],769.0±126.5 DPM
same,DPM (3H-ES uptake by OATP1B1),[5],2798.7±891.8 DPM
